# Measured values taken from patent US5605895A, “Cephalosporin antibiotics and processes for preparation thereof” (Lucky, Ltd., priority 1993, dated 1997).
# Columns and labels:
# A. calcoaceticus 15473A = test: Minimum inhibitory concentration, agar dilution; assay type: cell-based; conditions: Acinetobacter calcoaceticus, Muller-Hinton agar, 10^7 CFU per ml, 37° C., 20 hours
# Experimental: (§1) The minimum inhibitory concentration was determined by diluting the test compounds according to 2-fold dilution, suspending them in M uller-Hinton agar medium, inoculating the test strains having 10^7 CFU per 1 ml into the medium and then culturing the medium at 37° C. for 20 hours.
# E. cloacae 1194E = test: Minimum inhibitory concentration, agar dilution; assay type: cell-based; conditions: Enterobacter cloacae, 1194E, 20 h, read-out: Minimum Inhibitory Concentration
# Experimental: as §1
# E. coli 10536 = test: Minimum inhibitory concentration, agar dilution; assay type: cell-based; conditions: Escherichia coli; E. coli 10536; Muller-Hinton agar, 10^7 CFU per ml, 37° C., 20 hours; read-out: Minimum Inhibitory Concentration
# Experimental: as §1
# E. coli 3190Y = test: Minimum inhibitory concentration, agar dilution; assay type: cell-based; conditions: Escherichia coli; E. coli 3190Y; Muller-Hinton agar, 10^7 CFU per ml, 37° C., 20 hours; read-out: Minimum Inhibitory Concentration
# Experimental: as §1
# E. coli TEM1 1193E = test: Minimum inhibitory concentration, agar dilution; assay type: cell-based; conditions: Escherichia coli, TEM11193E, 20 h, read-out: Minimum Inhibitory Concentration
# Experimental: as §1
# E. coli TEM5 3739E = test: Minimum inhibitory concentration, agar dilution; assay type: cell-based; conditions: Escherichia coli, TEM53739E, 20 h, read-out: Minimum Inhibitory Concentration
# Experimental: as §1
# E. coli TEM9 2639E = test: Minimum inhibitory concentration, agar dilution; assay type: cell-based; conditions: Escherichia coli, TEM92639E, 20 h, read-out: Minimum Inhibitory Concentration
# Experimental: as §1
# K. aerogenes 1976E = test: Minimum inhibitory concentration, agar dilution; assay type: cell-based; conditions: Klebsiella aerogenes, Muller-Hinton agar, 10^7 CFU per ml, 37° C., 20 hours
# Experimental: as §1
# P. aeruginosa 10145 = test: Minimum inhibitory concentration, agar dilution; assay type: cell-based; conditions: Pseudomonas aeruginosa, Muller-Hinton agar, 10^7 CFU per ml, 37° C., 20 hours
# Experimental: as §1
# P. aeruginosa 1912E = test: Minimum inhibitory concentration, agar dilution; assay type: cell-based; conditions: Pseudomonas aeruginosa, 20 h, read-out: Minimum Inhibitory Concentration
# Experimental: as §1
# P. aeruginosa 6065Y = test: Minimum inhibitory concentration, agar dilution; assay type: cell-based; conditions: Pseudomonas aeruginosa, 20 h, read-out: Minimum Inhibitory Concentration
# Experimental: as §1
# S. aureus 6538pA = test: Minimum inhibitory concentration, agar dilution; assay type: cell-based; conditions: Staphylococcus aureus, Muller-Hinton agar, 10^7 CFU per ml, 37° C., 20 hours
# Experimental: as §1
# S. aureus giorigio = test: Minimum inhibitory concentration, agar dilution; assay type: cell-based; conditions: Staphylococcus aureus, Muller-Hinton agar, 10^7 CFU per ml, 37° C., 20 hours
# Experimental: as §1
# S. faecalis 29212A = test: Minimum inhibitory concentration, agar dilution; assay type: cell-based; conditions: Enterococcus faecalis; S. faecalis 29212A; Muller-Hinton agar, 10^7 CFU per ml, 37° C., 20 hours; read-out: Minimum Inhibitory Concentration
# Experimental: as §1
# S. marcescens 1826E = test: Minimum inhibitory concentration, agar dilution; assay type: cell-based; conditions: Serratia marcescens, Muller-Hinton agar, 10^7 CFU per ml, 37° C., 20 hours
# Experimental: as §1
# S. typhimurium 14028A = test: Minimum inhibitory concentration, agar dilution; assay type: cell-based; conditions: Salmonella enterica; S. typhimurium 14028A; Muller-Hinton agar, 10^7 CFU per ml, 37° C., 20 hours; read-out: Minimum Inhibitory Concentration
# Experimental: as §1
# [1] = Pharmacokinetic properties in SD rats; assay type: in vivo; conditions: rat; SD rats (male), intravenous, 20 mg/kg; blood, biological assay (agar well method)
# Experimental: The pharmacokinetic properties of the compound of the present invention were determined using SD rats (.male.) weighing 220 to 340 g. Specifically, the test samples were administered in intravenous route in an amount of 20 mg/kg to 2 to 5 test animals. Blood was taken from femoral vein every hours after the administration and then subjected to a biological assay using agar well method to measure the blood concentration. The results of pharmacokinetic properties calculated from the above blood concentration are described in the following Table 3.
compound,measurement,setting,value
"Cn1cc[n+]2c(SCC3=C(C(=O)[O-])N4C(=O)C(NC(=O)C(=NOC(C(=O)O)c5ccc(O)c(O)c5)c5csc(N)n5)C4SC3)nc(N)cc12 (stereo not drawn) [I-11(a), 7-[(Z)-2-(2-aminothiazol-4-yl)-2-(α-carboxy-3,4-dihydroxybenzyloxyimino)acetamido]-3-(7-amino-1-methyl-1H-imidazo[1,2-c]pyrimidinium-5-yl)-thiomethyl-3-cephem-4-carboxylate]",MIC,A. calcoaceticus 15473A,0.5 µg/mL
same,MIC,E. cloacae 1194E,1 µg/mL
same,MIC,E. coli 10536,≤ 0.008 µg/mL
same,MIC,E. coli 3190Y,0.031 µg/mL
same,MIC,E. coli TEM1 1193E,0.063 µg/mL
same,MIC,E. coli TEM5 3739E,0.25 µg/mL
same,MIC,E. coli TEM9 2639E,1 µg/mL
same,MIC,K. aerogenes 1976E,0.13 µg/mL
same,MIC,P. aeruginosa 10145,0.25 µg/mL
same,MIC,P. aeruginosa 1912E,0.5 µg/mL
same,MIC,P. aeruginosa 6065Y,0.5 µg/mL
same,MIC,S. aureus 6538pA,0.5 µg/mL
same,MIC,S. aureus giorigio,0.5 µg/mL
same,MIC,S. faecalis 29212A,8 µg/mL
same,MIC,S. marcescens 1826E,0.25 µg/mL
same,MIC,S. typhimurium 14028A,0.016 µg/mL
same,AUC,[1],47900 ng·h/mL
same,half-life,[1],1.13 h
